Key:
Assay type in all cases: cell-based
adenosine A2a receptor = biological target: T1, adenosine A2a receptor (Homo sapiens, UniProt P29274); experiment: Indirect determination of adenosine agonism by way of gene expression (cAMP-dependent luciferase reporter), A2a cells; conditions: stably transfected CHO cells; 50% of the maximum stimulation of luciferase
T1 construct: expressed in transfected cells; host or cells: CHO (Chinese Hamster Ovary)
From the text: (§1) B-1. Indirect determination of the adenosine agonism by way of gene expression Cells of the CHO (Chinese Hamster Ovary) permanent line are transfected stably with the cDNA for the adenosine receptor subtypes A1, A2a and A2b. The adenosine A1 receptors are coupled to the adenylate cyclase by way of Gi proteins, while the adenosine A2a and A2b receptors are coupled by way of Gs proteins. In correspondence with this, the formation of cAMP in the cell is inhibited or stimulated, respectively. After that, expression of the luciferase is modulated by way of a cAMP-dependent promoter. The luciferase test is optimized, with the aim of high sensitivity and reproducibility, low variance and good suitability for implementation on a robot system, by varying several test parameters, such as cell density, duration of the growth phase and the test incubation, forskolin concentration and medium composition. The following test protocol is used for pharmacologically characterizing cells and for the robot-assisted substance screening:
(§2) The stock cultures are grown, at 37° C. and under 5% CO2, in DMEM/F12 medium containing 10% FCS (fetal calf serum) and in each case split 1:10 after 2-3 days. Test cultures are seeded in 384-well plates with 2000 cells per well and grown at 37° C. for approx. 48 hours. The medium is then replaced with a physiological sodium chloride solution (130 mM sodium chloride, 5 mM potassium chloride, 2 mM calcium chloride, 20 mM HEPES, 1 mM magnesium chloride hexahydrate, 5 mM sodium bicarbonate, pH 7.4). The substances to be tested, which are dissolved in DMSO, are pipetted into the test cultures (maximum final concentration of DMSO in the test mixture: 0.5%) in a dilution series of from 5×10^−11M to 3×10^−6M (final concentration). 10 minutes later, forskolin is added to the A1 cells and all the cultures are subsequently incubated at 37° C. for four hours. After that, 35 μl of a solution which is composed of 50% lysis reagent (30 mM disodium hydrogenphosphate, 10% glycerol, 3% TritonX100, 25 mM TrisHCl, 2 mM dithiotreitol (DTT), pH 7.8) and 50% luciferase substrate solution (2.5 mM ATP, 0.5 mM luciferin, 0.1 mM coenzyme A, 10 mM tricine, 1.35 mM magnesium sulfate, 15 mM DTT, pH 7.8) are added to the test cultures, which are shaken for approx. 1 minute and the luciferase activity is measured using a camera system. The EC50 values are determined, i.e., the concentrations at which 50% of the luciferase response is inhibited in the case of the A1 cell, and, respectively, 50% of the maximum stimulation with the corresponding substance is achieved in the case of the A2b and A2a cells. […] Pharmacol., 357, 1-9 (1998)).
(§3) Table 1 below lists the EC50 values of representative working examples for the receptor stimulation on adenosine A1, A2a and A2b receptor subtypes: […]

adenosine A2b receptor = biological target: T2, adenosine A2b receptor (Homo sapiens, UniProt P29275); experiment: Indirect determination of adenosine agonism by way of gene expression (cAMP-dependent luciferase reporter), A2b cells; conditions: stably transfected CHO cells; 50% of the maximum stimulation of luciferase
T2 construct: expressed in transfected cells; host or cells: CHO (Chinese Hamster Ovary)
T2 sequence (P29275 1-332): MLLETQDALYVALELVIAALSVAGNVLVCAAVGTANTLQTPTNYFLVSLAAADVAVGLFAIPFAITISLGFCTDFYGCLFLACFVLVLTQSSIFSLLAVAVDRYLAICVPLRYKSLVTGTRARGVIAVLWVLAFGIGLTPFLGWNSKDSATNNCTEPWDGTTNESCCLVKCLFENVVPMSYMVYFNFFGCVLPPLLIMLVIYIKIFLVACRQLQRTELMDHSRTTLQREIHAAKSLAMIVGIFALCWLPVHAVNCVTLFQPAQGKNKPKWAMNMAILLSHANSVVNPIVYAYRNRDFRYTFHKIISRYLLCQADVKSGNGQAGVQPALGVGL
From the text: as §1, §2, §3

adenosine A1 receptor = biological target: T3, adenosine A1 receptor (Homo sapiens, UniProt P30542); experiment: Indirect determination of adenosine agonism by way of gene expression (cAMP-dependent luciferase reporter), A1 cells; conditions: stably transfected CHO cells; 1 μM forskolin; concentration at which 50% of the luciferase response is inhibited
T3 construct: expressed in transfected cells; host or cells: CHO (Chinese Hamster Ovary)
T3 sequence (P30542 1-326): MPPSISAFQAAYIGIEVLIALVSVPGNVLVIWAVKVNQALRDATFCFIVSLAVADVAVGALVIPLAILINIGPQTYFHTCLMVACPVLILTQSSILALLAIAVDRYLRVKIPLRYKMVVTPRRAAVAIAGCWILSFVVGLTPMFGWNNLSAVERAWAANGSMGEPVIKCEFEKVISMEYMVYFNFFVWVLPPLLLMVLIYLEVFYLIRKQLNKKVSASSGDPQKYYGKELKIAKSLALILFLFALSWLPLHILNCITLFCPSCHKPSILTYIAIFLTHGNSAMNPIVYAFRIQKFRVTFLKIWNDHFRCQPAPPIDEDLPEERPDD
From the text: as §1, §2, §3

T1 sequence (P29274 whole entry): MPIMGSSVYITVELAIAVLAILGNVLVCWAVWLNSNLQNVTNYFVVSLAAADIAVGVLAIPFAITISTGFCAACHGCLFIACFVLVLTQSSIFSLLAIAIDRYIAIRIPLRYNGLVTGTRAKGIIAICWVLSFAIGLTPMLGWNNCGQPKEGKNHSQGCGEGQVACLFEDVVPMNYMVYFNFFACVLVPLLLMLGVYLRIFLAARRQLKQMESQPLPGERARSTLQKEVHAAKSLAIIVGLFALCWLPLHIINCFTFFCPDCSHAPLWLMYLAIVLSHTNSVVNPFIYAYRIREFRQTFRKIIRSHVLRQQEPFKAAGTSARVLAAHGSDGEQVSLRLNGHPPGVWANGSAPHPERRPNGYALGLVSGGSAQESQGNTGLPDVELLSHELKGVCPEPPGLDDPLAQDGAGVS

SMILES | EC50 (adenosine A2a receptor) [nM] | EC50 (adenosine A2b receptor) [nM] | EC50 (adenosine A1 receptor) [nM]
COC(=O)c1c(N)c2c(-c3ccc(OCCO)cc3)c(C#N)c(SCc3cccc(C(N)=O)c3)nc2n1C [Example 15, Methyl 3-amino-6-[(3-carbamoylbenzyl)thio]-5-cyano-4-[4-(2-hydroxyethoxy)phenyl]-1-methyl-1H-pyrrolo[2,3-b]pyridine-2-carboxylate] | 440 | 1330 | 3.7
N#Cc1c(SCc2csc(-c3ccc(Cl)cc3)n2)nc2[nH]nc(N)c2c1-c1ccc(OCCO)cc1 [Example 21, 3-Amino-6-({[2-(4-chlorophenyl)-1,3-thiazol-4-yl]methyl}sulfanyl)-4-[4-(2-hydroxyethoxy)phenyl]-1H-pyrazolo[3,4-b]pyridine-5-carbonitrile] | > 3000 | > 3000 | 10
COC(=O)c1c(N)c2c(-c3ccc(OC[C@@H](O)CO)cc3)c(C#N)c(SCc3csc(-c4ccc(Cl)cc4)n3)nc2n1C [Example 12] | 1600 | > 3000 | 11
COC(=O)c1c(N)c2c(-c3ccccc3)c(C#N)c(SCc3csc(-c4ccc(Cl)cc4)n3)nc2n1C [Example 3] | > 3000 | > 3000 | 5.3
COC(=O)c1[nH]c2nc(SCc3csc(-c4ccc(Cl)cc4)n3)c(C#N)c(-c3ccc(OCCO)cc3)c2c1N [Example 17, Methyl 3-amino-6-({[2-(4-chlorophenyl)-1,3-thiazol-4-yl]methyl}thio)-5-cyano-4-[4-(2-hydroxyethoxy)phenyl]-1H-pyrrolo[2,3-b]pyridine-2-carboxylate] | 680 | > 3000 | 3.7
COC(=O)c1c(N)c2c(-c3ccc(OC[C@@H](O)CO)cc3)c(C#N)c(SCc3coc(-c4ccc(Cl)cc4)n3)nc2n1C [Example 11] | 600 | > 3000 | 14
Cn1c(C(N)=O)c(N)c2c(-c3ccc(OCCO)cc3)c(C#N)c(SCc3cccc(C(N)=O)c3)nc21 [Example 16, 3-Amino-6-[(3-carbamoylbenzyl)thio]-5-cyano-4-[4-(2-hydroxyethoxy)phenyl]-1-methyl-1H-pyrrolo[2,3-b]pyridine-2-carboxamide] | 330 | 760 | 4.9
COC(=O)c1c(N)c2c(-c3ccc(OCCO)cc3)c(C#N)c(SCc3ccc(OC)nc3)nc2n1C [Example 5] | 200 | 1000 | 1.5
COC(=O)c1c(N)c2c(-c3ccc(OCCO)cc3)c(C#N)c(SCc3cccc(C#N)c3)nc2n1C [Example 4] | 73 | 320 | 3

Further lines, results first:

EC50 (adenosine A2a receptor) [nM] | EC50 (adenosine A2b receptor) [nM] | EC50 (adenosine A1 receptor) [nM] | SMILES
350 | 660 | 5 | CNC(=O)c1c(N)c2c(-c3ccc(OCCO)cc3)c(C#N)c(SCc3csc(-c4ccc(Cl)cc4)n3)nc2n1C [Example 7]
1120 | > 3000 | 0.3 | Cn1c(C(N)=O)c(N)c2c(-c3ccc(OCCO)cc3)c(C#N)c(SCc3csc(-c4ccc(Cl)cc4)n3)nc21 [Example 6]
150 | 1540 | 1.7 | COC(=O)Cn1c(C(=O)OC)c(N)c2c(-c3ccc(OCCO)cc3)c(C#N)c(SCc3csc(-c4ccc(Cl)cc4)n3)nc21 [Example 2]
170 | 550 | 0.8 | COC(=O)c1c(N)c2c(-c3ccc(OCCO)cc3)c(C#N)c(SCc3csc(-c4ccc(Cl)cc4)n3)nc2n1C [Example 1, Methyl 3-amino-6-({[2-(4-chlorophenyl)-1,3-thiazol-4-yl]methyl}thio)-5-cyano-4-[4-(2-hydroxyethoxy)phenyl]-1-methyl-1H-pyrrolo[2,3-b]pyridine-2-carboxylate]

Source: patent US8609686B2, “Substituted azabicyclic compounds and the use thereof” (Bayer Intellectual Property GmbH, priority 2007, dated 2013)
